Results reported in patent US11083724B2, “Rimegepant for CGRP related disorders” (Biohaven Pharmaceutical Holding Company Ltd., priority 2018, dated 2021).

Legend:
[1] = tested on: subjects with Acute Migraines; assay: Study 303 (BHV3000-303, NCT03461757): Phase 3 double-blind placebo-controlled trial, rimegepant 75 mg ODT, acute treatment of migraine; type: in vivo, human
Experimental: Clinical Trial—BHV3000-303: Phase 3: Double-Blind, Randomized, Placebo-Controlled, Safety and Efficacy Trial of BHV-3000 (Rimegepant) Orally Discintegrating Tablet (ODT) for the Acute Treatment of Migraine (ClinicalTrials.gov Identifier: NCT03461757) A phase 3 clinical study was conducted with 1812 participants, as follows. The purpose of this study is to compare the efficacy of BHV-3000 (rimegepant ODT) versus placebo in subjects with Acute Migraines. Study Design • Study Type: Interventional (Clinical Trial) • Actual Enrollment: 1812 participants • Allocation: Randomized • Intervention Model: Parallel Assignment • Masking: Triple (Participant, Care Provider, Investigator) • Primary Purpose: Treatment • Official Title: BHV3000-303: Phase 3, Double-Blind, Randomized, Placebo Controlled, Safety and Efficacy Trial of BHV-3000 (Rimegepant) Orally Disintegrating Tablet (ODT) for the Acute Treatment of Migraine • Actual Study Start Date: Feb. 27, 2018 • Actual Primary Completion Date: Oct. 8, 2018 • Actual Study Completion Date: Oct. 15, 2018 Arms and Interventions Outcome Measures Primary Outcome Measures: 1. Pain freedom of rimegepant compared with placebo in the acute treatment of migraine will be measured using the number of evaluable subjects that report no pain at 2 hours post-dose. [Time Frame: Two hours post dose] Pain will be measured on a 4 point Likert scale (0=none, 1=mild, 2=moderate, 3=severe) 2. Freedom from the most bothersome symptom (MBS) of rimegepant compared with placebo will be measured using the number of evaluable subjects that report the absence of their MBS at 2 hours post-dose. [Time Frame: Two hours post dose] The MBS (nausea, phonophobia or photophobia) will measured using a binary scale (0=absent, 1=present). Secondary Outcome Measures: 1. To measure rimegepant compared to placebo on Pain Relief, at 2 hours post-dose, that report a pain level of moderate or severe at baseline and then report a pain level of none or mild. [Time Frame: 2 hours post-dose] Pain Relief as measured by a 4 point numeric rating scale (None, Mild, Moderate, Severe) 2. Functional disability scale [Time Frame: 2 hour post-dose] Subjects self-report “normal” on the functional disability scale 3. […] [Time Frame: 2 hours-24 hours post-dose] Sustained Pain Relief as measured by a 4 point numeric rating scale (None, Mild, Moderate, Severe) 4. […] [Time Frame: 2 to 24 hours post dose] Most bothersome symptom 5. To measure rimegepant compared to placebo on the probability of requiring rescue medication will be assessed using the number of subjects that take rescue medication within […] administration of study medication (BHV3000 or placebo). [Time Frame: up to 24 hours post-dose] Requiring Rescue Medication 6. Sustained ability to function at a normal level as measured by the Functional disability scale [Time Frame: 2 to 24 hours post dose] Subjects self-report “normal” on the functional disability scale 7. […] [Time Frame: 2 hours-48 hours post-dose] Sustained Pain Relief as measured by a 4 point numeric rating scale (None, Mild, Moderate, Severe) 8. Rimegepant compared to placebo on pain freedom from most bothersome symptom from 2-48 hours post dose. [Time Frame: 2 to 48 hours post dose] Most bothersome symptom 9. Sustained ability to function at a normal level as measured by the Functional disability scale [Time Frame: 2 to 48 hours post dose] Subjects self-report “normal” on the functional disability scale 10. Rimegepant compared to placebo by tabulating the number of subjects that report the absence of photophobia at 2 hours post-dose in the subset of subjects that reported the presence of photophobia at headache baseline [Time Frame: 2 hours post-dose] Freedom from Photophobia 11. Functional disability scale [Time Frame: 90 minutes post dose] Subjects self-report “normal” on the functional disability scale 12. […] [Time Frame: 90 minutes post dose] Pain Relief as measured by a 4 point numeric rating scale (None, Mild, Moderate, Severe) 13. […]

[2] = tested on: subjects with Acute Migraines; assay: Pooled adverse event and liver function test data, Studies 301, 302 and 303; type: in vivo, human; conditions: for bilirubin elevations > 2 × ULN: across Studies 301, 302 and 303
[3] = Study 303, n = 669, exploratory
[4] = Study 303, single 75 mg ODT, N = 669
[5] = pooled Studies 301, 302, 303, n = 1,771
[6] = pooled Studies 301, 302, 303, n = 1,771, AST elevation, not drug-related
[7] = pooled Studies 301, 302, 303, within 48 hours post-dose, n = 1,771

For `N[C@@H]1c2cccnc2[C@H](OC(=O)N2CCC(n3c(=O)[nH]c4ncccc43)CC2)CC[C@H]1c1cccc(F)c1F` [Rimegepant, [(5S,6S,9R)-5-amino-6-(2,3-difluorophenyl)-6,7,8,9-tetrahydro-5H-cyclohepta[b]pyridin-9-yl] 4-(2-oxo-3H-imidazo[4,5-b]pyridin-1-yl)piperidine-1-carboxylate], the “Freedom from MBS at 2 hours, Difference (rimegepant minus placebo)” value ([1]; Study 303) was 8.3%, the “Pain Freedom at 2 hours, Difference (rimegepant minus placebo)” value ([1]; Study 303) was 10.3% and the “incidence of any single adverse event (AE) in the rimegepant group” value ([1]; Study 303) was at most 1.6%. The “patients with LFTs >3×ULN” value ([1]; Study 303) was “one”, the “Sustained Pain Relief 3 to 48 hrs” value ([1]; Study 303, n = 669) was 49.9% and the “Sustained Pain Relief 3 to 24 hrs” value [1, 3] was 56.4%. For the same compound, the “Sustained Pain Relief 4 to 24 hrs” value [1, 3] was 61.7%, the “Sustained Pain Relief 4 to 48 hrs” value [1, 3] was 54.7% and the “Pain Relief @ 2 hours” value ([1]; Study 303, secondary 1) was 59.3%. The “Functional Disability at 2 hours” value ([1]; Study 303, secondary 2, self-report normal) was 38.1%, the “SP Relief (Sustained Pain Relief) 2 to 24 hours” value ([1]; Study 303, secondary 3) was 47.8% and the “MBS 2 to 24” value ([1]; Study 303, secondary 4, sustained freedom from MBS) was 27.1%. The “Prob of Rescue Meds in 24 hours” value ([1]; Study 303, secondary 5) was 14.2%, the “Functional Disability 2 to 24” value ([1]; Study 303, secondary 6) was 29.6% and the “SP Relief (Sustained Pain Relief) 2 to 48 hours” value ([1]; Study 303, secondary 7) was 42.2%. The “MBS 2 to 48” value ([1]; Study 303, secondary 8) was 23.2%, the “Functional Disability 2 to 48” value ([1]; Study 303, secondary 9) was 26.0% and the “Photophobia @ 2 hours” value ([1]; Study 303, secondary 10, freedom from photophobia) was 33.4%. The “Functional Disabilty @ 90 minutes” value ([1]; Study 303, secondary 11) was 30.2%, the “Pain Relief @ 90 minutes” value ([1]; Study 303, secondary 12) was 49.6% and the “SP Freedom 2 to 24 hours” value ([1]; Study 303, secondary 13) was 15.7%. For the same compound, the “MBS Freedom at 90 minutes” value ([1]; Study 303, secondary 14) was 27.4%, the “Pain Freedom @ 90 minutes” value ([1]; Study 303, secondary 15) was 15.1% and the “Phonophobia @ 2hours” value ([1]; Study 303, secondary 16, freedom from phonophobia) was 41.7%. For the same compound, the “SP Freedom 2 to 48 hours” value ([1]; Study 303, secondary 17) was 13.5%, the “Pain Relief at 60 minutes” value ([1]; Study 303, secondary 18) was 36.8% and the “Functional Disability at 60 minutes” value ([1]; Study 303, secondary 19) was 22.3%. The “Nausea @ 2 hours” value ([1]; Study 303, secondary 20, freedom from nausea) was 51.0%, the “Pain Relpase 2 to 48” value ([1]; Study 303, secondary 21) was 36.6% and the “Freedom from MBS at 2 hours” value [1, 4] was 35.1%. The “Pain Freedom at 2 hours” value [1, 4] was 21.2%, the “clinical benefit through 48 hours on pain relief, pain freedom, most bothersome symptom, functional disability” value ([1]; Study 303, single dose, versus placebo) was “Lasting clinical benefit” and the “bilirubin elevations > 2 × ULN” value [2] was “*AST/ALT Categories are not mutually exclusive; No bilirubin elevations > 2 × ULN across Studies 301, 302 and 303”. For the same compound, the “bilirubin elevations > 2 × ULN” value ([2]; listed as rimegepant) was “no patients”, the “drug-related Serious Adverse Events (SAEs)” value ([2]; pooled Studies 301, 302, 303) was “**No drug-related Serious Adverse Events (SAEs). 2 of the subjects with SAE in rimegepant group and 1 in placebo group had not been dosed before onset of SAE” and the “ALT or AST >3 × ULN, number of subjects” value [2, 5] was 2. For the same compound, the “ALT or AST >3 × ULN, percent of subjects” value [2, 5] was “(0.1%)”, the “ALT or AST >20 × ULN, number of subjects” value [2, 5] was 0 and the “ALT or AST >ULN, number of subjects” value [2, 5] was 48. The “ALT or AST >ULN, percent of subjects” value [2, 5] was “(2.7%)”, the “SAEs, number of patients” value [2, 5] was 3 and the “SAEs, percent of patients” value [2, 5] was 0.2%. For the same compound, the “ALT or AST >5 × ULN, number of subjects” value [2, 6] was 1, the “ALT or AST >5 × ULN, percent of subjects” value [2, 6] was “(0.06%)^2” and the “AE Nausea, number of patients” value [2, 7] was 26. For the same compound, the “AE Nausea, percent of patients” value [2, 7] was 1.5%, the “AE UTI, number of patients” value [2, 7] was 21 and the “AE UTI, percent of patients” value [2, 7] was 1.2%. For the same compound, the “≥1 On-Study AE, number of patients” value [2, 7] was 252 and the “≥1 On-Study AE, percent of patients” value [2, 7] was 14.2%.
